Read-outs that look alike come from different tables or passages of the source.
Assays:
[1] = tested on: cancer cells; assay: Survival rate of cancer cells after test compound is added (flow cytometry, Annexin V-FITC/PI, clinical specimen); format: cell-based, patient; settings: Homo sapiens, 18 h, read-out: Survival rate (%) All cells (Stem cells and ordinary cells)
Method in brief: (§1)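 Patient specimens (e.g. AML, CD34+/CD38+ stem-cell marker) separated on Ficoll; mononuclear cells at 1×10^6/mL in serum-free IMDM treated 18 h with compound. Cells stained for stem-cell markers, then Annexin V-FITC/PI, and apoptosis measured by flow cytometry within one hour.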

[2] = tested on: normal cells; assay: Survival rate of normal cells after test compound is added (flow cytometry, Annexin V-FITC/PI); format: cell-based; settings: 18 h
Method in brief: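 Steps: density-gradient isolation of mononuclear cells from fresh or cryopreserved clinical samples; 18-hour compound exposure at 1×10^6 cells/mL; staining for stem-cell surface markers, then Annexin V-FITC and PI; flow cytometric apoptosis analysis.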

[3] = tested on: cancer stem cells; assay: Survival rate of cancer stem cells after test compound is added (flow cytometry, Annexin V-FITC/PI, clinical specimen); format: cell-based, patient; settings: Homo sapiens, 18 h
Method in brief: as §1

[4] = tested on: TNF-α secreted by synoviocyte; assay: Content of TNF-α in culture supernatant of synoviocyte of RA model rats given test compound; format: in vivo; settings: rat RA model, dose 30 mg/kg.2d; normal control 0.38 ± 0.027, NaCl 0.74 ± 0.098
Method in brief: (§2)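 Animals with induced RA are grouped and dosed with compound (30 mg/kg.2d) alongside NaCl and normal controls. Synoviocytes are prepared and cultured, and supernatants are harvested. TNF-α and PGE2 secretion are then quantified by one procedure, IL-1β by another.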

[5] = tested on: IL-1β secreted by synoviocyte; assay: Content of IL-1β in culture supernatant of synoviocyte of RA model rats given test compound; format: in vivo; settings: rat RA model, dose 30 mg/kg.2d; normal control 0.16 ± 0.034, NaCl 0.49 ± 0.136
Method in brief: as §2

[6] = Head and neck squamous cell carcinomas
[7] = read-out: Survival rate (%) All cells (Stem cells and ordinary cells)
[8] = read-out: Survival rate (%) Stem cells

SMILES: C=C1C(=O)O[C@@H]2[C@H]3C(C)=CC[C@@]34O[C@@]4(C)CC[C@@H]12 [Compound 50]
- viability at 10 µM ([1]; AML): 57%
- viability at 20 µM ([1]; AML): 47%
- viability at 10 µM ([1]; Brain glioma): 74%
- viability at 20 µM ([1]; Brain glioma): 58%
- viability at 10 µM ([1]; Brain tumor): 72%
- viability at 20 µM ([1]; Brain tumor): 63%
- viability at 10 µM ([1]; Breast cancer): 75%
- viability at 20 µM ([1]; Breast cancer): 65%
- viability at 10 µM ([1]; CLL): 58%
- viability at 20 µM ([1]; CLL): 47%
- viability at 10 µM ([1]; CML): 64%
- viability at 20 µM ([1]; CML): 58%
- viability at 10 µM ([1]; Children hepatoblastoma): 55%
- viability at 20 µM ([1]; Children hepatoblastoma): 47%
- viability at 10 µM ([1]; Colon adenocarcinoma): 55%
- viability at 20 µM ([1]; Colon adenocarcinoma): 49%
- viability at 10 µM ([1]; Colorectal cancer): 76%
- viability at 20 µM ([1]; Colorectal cancer): 66%
- viability at 10 µM ([1]; Gastric cancer): 54%
- viability at 20 µM ([1]; Gastric cancer): 48%
- viability at 10 µM ([1]; Gastrointestinal tumor): 64%
- viability at 20 µM ([1]; Gastrointestinal tumor): 53%
- viability at 10 µM ([1]; Glioma): 74%
- viability at 20 µM ([1]; Glioma): 56%
- viability at 10 µM [1, 6]: 67%
- viability at 20 µM [1, 6]: 58%
- viability at 10 µM ([1]; Laryngeal cancer): 75%
- viability at 20 µM ([1]; Laryngeal cancer): 64%
- viability at 10 µM ([1]; Liver cancer): 66%
- viability at 20 µM ([1]; Liver cancer): 54%
- viability at 10 µM ([1]; Lung adenocarcinoma): 57%
- viability at 20 µM ([1]; Lung adenocarcinoma): 47%
- viability at 10 µM ([1]; Lung cancer): 54%
- viability at 20 µM ([1]; Lung cancer): 47%
- viability at 10 µM ([1]; Malignant melanoma): 82%
- viability at 20 µM ([1]; Malignant melanoma): 66%
- viability at 10 µM ([1]; Nasopharynx cancer): 54%
- viability at 20 µM ([1]; Nasopharynx cancer): 48%
- viability at 10 µM ([1]; Ovarian cancer): 77%
- viability at 20 µM ([1]; Ovarian cancer): 67%
- viability at 10 µM ([1]; Pancreatic cancer): 64%
- viability at 20 µM ([1]; Pancreatic cancer): 49%
- viability at 10 µM ([1]; Prostate cancer): 66%
- viability at 20 µM ([1]; Prostate cancer): 54%
- viability at 10 µM ([1]; Retinoblastoma): 65%
- viability at 20 µM ([1]; Retinoblastoma): 53%
- viability at 10 µM ([1]; Skin cancer): 66%
- viability at 20 µM ([1]; Skin cancer): 58%
- viability at 10 µM [2, 7]: 92%
- viability at 10 µM [2, 8]: 90%
- viability at 20 µM [2, 7]: 91%
- viability at 20 µM [2, 8]: 89%
- viability at 10 µM ([3]; AML): 45%
- viability at 20 µM ([3]; AML): 36%
- viability at 10 µM ([3]; Brain glioma): 63%
- viability at 20 µM ([3]; Brain glioma): 47%
- viability at 10 µM ([3]; Brain tumor): 62%
- viability at 20 µM ([3]; Brain tumor): 54%
- viability at 10 µM ([3]; Breast cancer): 64%
- viability at 20 µM ([3]; Breast cancer): 52%
- viability at 10 µM ([3]; CLL): 47%
- viability at 20 µM ([3]; CLL): 36%
- viability at 10 µM ([3]; CML): 57%
- viability at 20 µM ([3]; CML): 46%
- viability at 10 µM ([3]; Children hepatoblastoma): 42%
- viability at 20 µM ([3]; Children hepatoblastoma): 34%
- viability at 10 µM ([3]; Colon adenocarcinoma): 43%
- viability at 20 µM ([3]; Colon adenocarcinoma): 35%
- viability at 10 µM ([3]; Colorectal cancer): 64%
- viability at 20 µM ([3]; Colorectal cancer): 55%
- viability at 10 µM ([3]; Gastric cancer): 45%
- viability at 20 µM ([3]; Gastric cancer): 37%
- viability at 10 µM ([3]; Gastrointestinal tumor): 55%
- viability at 20 µM ([3]; Gastrointestinal tumor): 44%
- viability at 10 µM ([3]; Glioma): 62%
- viability at 20 µM ([3]; Glioma): 45%
- viability at 10 µM [3, 6]: 56%
- viability at 20 µM [3, 6]: 47%
- viability at 10 µM ([3]; Laryngeal cancer): 64%
- viability at 20 µM ([3]; Laryngeal cancer): 53%
- viability at 10 µM ([3]; Liver cancer): 53%
- viability at 20 µM ([3]; Liver cancer): 46%
- viability at 10 µM ([3]; Lung adenocarcinoma): 46%
- viability at 20 µM ([3]; Lung adenocarcinoma): 36%
- viability at 10 µM ([3]; Lung cancer): 43%
- viability at 20 µM ([3]; Lung cancer): 33%
- viability at 10 µM ([3]; Malignant melanoma): 64%
- viability at 20 µM ([3]; Malignant melanoma): 54%
- viability at 10 µM ([3]; Nasopharynx cancer): 44%
- viability at 20 µM ([3]; Nasopharynx cancer): 37%
- viability at 10 µM ([3]; Ovarian cancer): 62%
- viability at 20 µM ([3]; Ovarian cancer): 55%
- viability at 10 µM ([3]; Pancreatic cancer): 53%
- viability at 20 µM ([3]; Pancreatic cancer): 43%
- viability at 10 µM ([3]; Prostate cancer): 54%
- viability at 20 µM ([3]; Prostate cancer): 41%
- viability at 10 µM ([3]; Retinoblastoma): 54%
- viability at 20 µM ([3]; Retinoblastoma): 44%
- viability at 10 µM ([3]; Skin cancer): 57%
- viability at 20 µM ([3]; Skin cancer): 43%
- Content of TNF-α in culture supernatant of synoviocyte (x ± s) [4]: 0.52 ± 0.064 ng/mL
- Content of IL-1β in culture supernatant of synoviocyte (x ± s) [5]: 0.34 ± 0.061 ng/mL
